{
  "source": "patent US11666642B2",
  "about": "“PDE5 compositions and methods for immunotherapy” (Obsidian Therapeutics, Inc., priority 2017, dated 2023)",
  "key": {"[1]": {"system": "HEK 293 cells", "assay": "CAR surface expression by Protein L staining, dose and time dependence", "type": "cell-based", "details": "OT-CD19-053 in HEK 293 cells, 24 hours of ligand", "method": "The dose dependent regulation of OT-CD19-052 and OT-CD19-053 was measured in HEK 293 cells transfected with 2 ug DNA and stably selected using 2 ug/ml puromycin.\nCells were also treated with ligand for varying durations of time with ligand concentrations shown in Table 45C and Protein L expression was measured using FACS."}, "[2]": {"system": "NIH 3T3 cells", "assay": "Western blot analysis using a GFP antibody, hPDE5 C terminal mutants", "details": "hPDE5 mutant construct, 24 hours and 48 hours, vs untreated cells", "source_text": "All comparisons were made against cells that were not treated with either ligand."}, "[3]": {"system": "HEK293T cells", "assay": "Effect of linker on DD regulation of IL15-IL15Ra, FACS using the HA antibody", "type": "cell-based", "details": "for Stabilization ratio: 1 μM Vardenafil vs DMSO control; for % HA positive cells, Vardenafil: 1 μM Vardenafil, 24 hours; for % HA positive cells, Control: DMSO control", "method": "The effect of the type of linker used and the length of the linker on the regulation of the expression of the payload was tested. IL15-IL15Ra fusion constructs were linked to the hPDE5 (R732L) DD using GSGSGS (SEQ ID NO. 8330) as the linker (as in OT-IL15-111), or […] (SEQ ID NO. 8331) as the linker (as in OT-IL15-112) or using […] (SEQ ID NO. 8332) as the linker (as in OT-IL15-113). The IL15 portion of the construct was tagged with a Flag tag while the IL15Ra portion was tagged with a HA tag. These tags allow both the components of the construct to be tracked individually in experiments. […] The properties of the DDs regulated IL15-IL15Ra payloads were analyzed in the presence and absence of ligands via FACS using the HA antibody as previously described."}},
  "data": [
    {"compound": "CCCc1nn(C)c2c(=O)[nH]c(-c3cc(S(=O)(=O)N4CCN(C)CC4)ccc3OCC)nc12", "note": "[Sildenafil]", "values": [
      {"measurement": "EC50", "setting": "[1]", "value": 1500, "unit": "nM"},
      {"measurement": "GFP protein levels by western blot", "setting": "[2]; 0.1 μM ligand", "value": "modest stabilization of GFP protein levels"},
      {"measurement": "GFP protein levels by western blot", "setting": "[2]; 1 μM ligand", "value": "stabilization of GFP increased"}
    ]},
    {"compound": "OT-IL15-113: IL15-IL15Ra fusion linked to hPDE5 (R732L) DD using GSGSGGGSGS linker", "values": [
      {"measurement": "Stabilization ratio", "setting": "[3]", "value": 1.65},
      {"measurement": "% HA positive cells, Vardenafil", "setting": "[3]", "value": 69.1, "unit": "%"},
      {"measurement": "% HA positive cells, Control", "setting": "[3]", "value": 42, "unit": "%"}
    ]},
    {"compound": "OT-IL15-112: IL15-IL15Ra fusion linked to hPDE5 (R732L) DD using GSGSGSGS linker", "values": [
      {"measurement": "% HA positive cells, Vardenafil", "setting": "[3]", "value": 74.6, "unit": "%"},
      {"measurement": "% HA positive cells, Control", "setting": "[3]", "value": 41.6, "unit": "%"}
    ]},
    {"compound": "CCCc1nc(C)c2c(=O)[nH]c(-c3cc(S(=O)(=O)N4CCN(CC)CC4)ccc3OCC)nn12", "note": "[Vardenafil]", "values": [
      {"measurement": "EC50", "setting": "[1]; Homo sapiens, HEK293", "value": 25, "unit": "nM"}
    ]},
    {"compound": "OT-IL15-111: IL15-IL15Ra fusion linked to hPDE5 (R732L) DD using GSGSGS linker", "values": [
      {"measurement": "Stabilization ratio", "setting": "[3]", "value": 1.69},
      {"measurement": "% HA positive cells, Vardenafil", "setting": "[3]", "value": 63.2, "unit": "%"},
      {"measurement": "% HA positive cells, Control", "setting": "[3]", "value": 37.5, "unit": "%"}
    ]}
  ]
}
